Test results: patent US5959178A, “Modification of lignin synthesis in plants” (Imperial Chemical Industries PLC, priority 1991, dated 1999)

Molecular target: T1, purified poplar OMT (Populus trichocarpa x Populus deltoides, UniProt Q9LWB8)
T1 construct: closely related isoforms co-purify
Assay: Specific activity of the purified poplar OMT towards O-diphenolic substrates
Format: biochemical
Description: The specific activity of the purified OMT towards three different O-diphenolic substrates was measured. Using catechol, caffeic acid, and hydroxyferulic acid as substrate, we found an OMT activity of 0, 30, and 15 nkat/mg protein, respectively.

T1 sequence (Q9LWB8 entry or part of it T91I): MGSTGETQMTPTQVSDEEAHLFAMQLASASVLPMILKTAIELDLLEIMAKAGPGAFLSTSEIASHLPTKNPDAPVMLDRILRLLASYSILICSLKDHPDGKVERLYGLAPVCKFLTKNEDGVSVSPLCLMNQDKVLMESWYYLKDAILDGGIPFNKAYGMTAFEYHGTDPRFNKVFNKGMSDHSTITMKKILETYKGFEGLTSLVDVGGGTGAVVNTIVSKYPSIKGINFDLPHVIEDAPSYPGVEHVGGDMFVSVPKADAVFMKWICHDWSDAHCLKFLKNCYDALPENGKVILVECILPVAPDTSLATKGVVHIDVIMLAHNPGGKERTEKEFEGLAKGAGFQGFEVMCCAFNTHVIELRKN

`O=C(O)/C=C/c1ccc(O)c(O)c1` [caffeic acid] was tested, and the “OMT activity (specific activity) with compound as substrate” value was 30 nkat/mg protein.

`Oc1ccccc1O` [catechol] was tested, and the “OMT activity (specific activity) with compound as substrate” value was 0 nkat/mg protein.
